Laboratory results reported in patent publication US12156880B2, “Heterocyclic RIP1 kinase inhibitors” (Rigel Pharmaceuticals, Inc., priority 2021, dated 2024).

Tests used:
L929 cells = experiment: L929 cell necroptosis assay (TNFa + zVAD, CellTiter-Glo recovery); type: cell-based, murine; parameters: L929-CTG-recovery, L929, TNFa + zVAD (IC50): unit not given here; details: TNFa 2 ng/mL + zVAD-fmk; for IC50: Mus musculus, L929, 18 h, read-out: L929-CTG-recovery, L929, TNFa + zVAD (IC50)
Method: (§1) In this example, U937 and L929 cells were exposed to compounds of the present disclosure and a cell necroptosis assay was conducted to evaluate the compounds' activity against human RIP1 and murine RIP1.
(§2) U937 and L929 cells were obtained from the American Type Culture Collection (Manassas, VA, USA). Both cells were maintained in logarithmic growth phase in complete RPMI 1640 media (Sigma, ST Louis, MO, USA) supplemented with 10% fetal bovine serum (Sigma, ST Louis, MO, USA) at 37° C. with 5% CO2. For necroptosis assay, L929 cells were plated for 18 h in 100 μL/well medium at 10K cells/well in Costar 96-well black clear-bottom plates (Fisher Scientific, Hampton, NH, USA); U937 cells were plated on the day of the assay in 50 μL/well medium containing 60 uM zVAD-fmk (Lonza, Basel, Switzerland) at 50K cells/well. Medium from L929 cells were removed from the 96-well plates and replaced with 50 μL/well new medium containing 40 uM zVAD-fmk. Each compound of the present disclosure evaluated in this example was serially diluted in DMSO from 2.5 mM in 4-fold dilutions, and then diluted 1:125 in complete medium. 50 μL/well 2× of the compound was then added to the cells in the plates. The cells were pre-incubated with the compound for 1 hour at 37° C. with 5% CO2 and before addition of 10 μL/well 11×TNFa (Peprotech, Rocky Hill, NJ, USA) to give a final concentration of 2 ng/mL for TNFa. The relative amount of necroptosis cells was determined by luminescent using a Wallac Victor2 Luminometer (PerkinElmer, Waltham, MA, USA) and a CellTiter-Glo® Luminescent Cell Viability Reagent Assay (Promega, Madison, WI, USA) added per manufacturer instructions after 18 hours of TNFa stimulation at 37° C. with 5% CO2. This example establishes that embodiments of the compounds described herein have unexpectedly potent activity against human RIP1 and murine RIP1, which allows their assessment in in vivo mouse models of disease.

U937 cells = experiment: U937 cell necroptosis assay (TNFa + zVAD, CellTiter-Glo recovery); type: cell-based; details: Homo sapiens, U-937, 18 h, TNFa 2 ng/mL + zVAD-fmk, read-out: U937 Zvad TNF CTG Recovery, U937, TNFa + zVAD (IC50)
Method: as §1, §2

RIPK1 = target: T1, RIPK1 (Homo sapiens, UniProt Q13546); experiment: RIPK1 ADP-Glo biochemical kinase assay; details: read-out: RIPK1 ADP-Glo Kinase (IC50)
T1 sequence (Q13546 1-671): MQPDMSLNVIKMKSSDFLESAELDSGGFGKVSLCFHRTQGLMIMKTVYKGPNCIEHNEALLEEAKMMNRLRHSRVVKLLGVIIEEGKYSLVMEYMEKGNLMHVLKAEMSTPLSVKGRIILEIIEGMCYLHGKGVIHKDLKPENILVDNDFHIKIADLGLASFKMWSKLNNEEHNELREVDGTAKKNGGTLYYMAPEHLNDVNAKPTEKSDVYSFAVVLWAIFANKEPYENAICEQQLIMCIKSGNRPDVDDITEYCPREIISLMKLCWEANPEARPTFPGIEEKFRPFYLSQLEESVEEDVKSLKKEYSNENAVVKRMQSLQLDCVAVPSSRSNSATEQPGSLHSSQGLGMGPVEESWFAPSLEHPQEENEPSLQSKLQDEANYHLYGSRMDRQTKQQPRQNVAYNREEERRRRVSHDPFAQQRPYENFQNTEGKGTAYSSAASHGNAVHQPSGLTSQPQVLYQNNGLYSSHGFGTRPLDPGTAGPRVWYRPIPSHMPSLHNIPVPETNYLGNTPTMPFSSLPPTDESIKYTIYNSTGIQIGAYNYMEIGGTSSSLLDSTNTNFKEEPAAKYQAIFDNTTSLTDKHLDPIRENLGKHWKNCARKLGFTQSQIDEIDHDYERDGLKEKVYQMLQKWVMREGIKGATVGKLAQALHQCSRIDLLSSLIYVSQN
Method: In this example, compounds of the disclosure were evaluated using a biochemical assay using the ADP-Glo™ technology.
ADP-Glo™ (Promega, Madison, WI, USA) reagents were thawed at ambient temperature. Kinase Detection Reagent was prepared by mixing kinase detection buffer with the lyophilized kinase detection substrate.
A […] stock volume of 5× Reaction Kinase Buffer was made by mixing 1000 μl of 1M MgCl2, 500 μl of 1M Tris-HCL pH7.4, 0.5 mg/ml (25 mg) of BSA, and 3475 μl of distilled H2O. A 3 ml 2× working stock volume of Reaction Kinase Buffer was made containing a final concentration of 100 μM DTT and 4 mM MnCl2.
Components of RIPK1 enzyme (Rigel Pharmaceuticals, South San Francisco, CA, USA) were thawed on ice. Diluted RIPK1 was prepared in 1× Kinase Reaction Buffer (diluted from 2× buffer) to 31 ng/well.
1.0 ul of diluted compound was added to a 384 well plate in duplicate. […] The final reaction volume was 5.0 μl.
The plate was quickly centrifuged and the reaction was incubated at 30° C. for 30 minutes. Adding 5 μl of ADP-Glo™ terminated the reaction. The plate was quickly centrifuged and the reaction was incubated at room temperature for 40 minutes. Kinase Detection Reagent was then added and incubated at room temperature for 30 minutes. The relative light unit (RLU) of kinase reaction was determined by luminescent (Luminescence 0.1 s) using a Wallac Victor2 Luminometer (PerkinElmer, Waltham, MA, USA).

Row | SMILES | IC50 (L929 cells) [nM] | IC50 (U937 cells) [nM] | IC50 (RIPK1) [nM] | L929-CTG-recovery, L929, TNFa + zVAD (IC50) (L929 cells; 18 hours)
1 | CN1C(=O)[C@@H](NC(=O)c2cc(Cc3cccnc3F)ccn2)COc2ccc(C#CC3CCOCC3)cc21 [I-51, (S)-4-((2-fluoropyridin-3-yl)methyl)-N-(5-methyl-4-oxo-7-((tetrahydro-2H-pyran-4-yl)ethynyl)-2,3,4,5-tetrahydrobenzo[b][1,4]oxazepin-3-yl)picolinamide] | 9.6 | 0.4 | 18.3 | –
2 | CN1C(=O)[C@@H](NC(=O)c2cc(Oc3cccnc3F)ccn2)COc2ccc(C#CC3CCOCC3)cc21 [I-125, (S)-4-((2-fluoropyridin-3-yl)oxy)-N-(5-methyl-4-oxo-7-((tetrahydro-2H-pyran-4-yl)ethynyl)-2,3,4,5-tetrahydrobenzo[b][1,4]oxazepin-3-yl)picolinamide] | 11.5 | 0.9 | 23.4 | –
3 | CN1C(=O)[C@@H](NC(=O)n2cc(Cc3cccc(F)n3)cn2)COc2ccc(C#CC(C)(C)C3CCOCC3)cc21 [I-107, (S)-4-((6-Fluoropyridin-2-yl)methyl)-N-(5-methyl-7-(3-methyl-3-(tetrahydro-2H-pyran-4-yl)but-1-yn-1-yl)-4-oxo-2,3,4,5-tetrahydrobenzo[b][1,4]oxazepin-3-yl)-1H-pyrazole-1-carboxamide] | 307 | 2 | 53.8 | –
4 | CN1C(=O)[C@@H](NC(=O)n2cc(Cc3ccncc3)cn2)COc2ccc(C#CC(C)(C)O)cc21 [I-29, (S)—N-(7-(3-Hydroxy-3-methylbut-1-yn-1-yl)-5-methyl-4-oxo-2,3,4,5-tetrahydrobenzo[b][1,4]oxazepin-3-yl)-4-(pyridin-4-ylmethyl)-1H-pyrazole-1-carboxamide] | 1720 | 47.2 | 69.4 | –
5 | CN1C(=O)[C@@H](NC(=O)n2cc(Cc3cccc(F)n3)cn2)CCc2c(F)cc(C#CC(C)(C)O)cc21 [I-121, (S)—N-(6-Fluoro-8-(3-hydroxy-3-methylbut-1-yn-1-yl)-1-methyl-2-oxo-2,3,4,5-tetrahydro-1H-benzo[b]azepin-3-yl)-4-((6-fluoropyridin-2-yl)methyl)-1H-pyrazole-1-carboxamide] | 11000 | 174 | 26.1 | –
6 | Cc1ccc(Oc2ccnc(C(=O)N[C@H]3COc4ccc(C#CC(C)(C)O)cc4N(C)C3=O)c2)c(C)n1 [I-78, (S)-4-((2,6-dimethylpyridin-3-yl)oxy)-N-(7-(3-hydroxy-3-methylbut-1-yn-1-yl)-5-methyl-4-oxo-2,3,4,5-tetrahydrobenzo[b][1,4]oxazepin-3-yl)picolinamide] | 6780 | 462 | 36.1 | –
7 | CN1C(=O)[C@@H](NC(=O)c2cc(Oc3ccc(F)nc3)ccn2)COc2ccc(C#CC(C)(C)O)cc21 [I-6, (S)-4-((6-fluoropyridin-3-yl)oxy)-N-(7-(3-hydroxy-3-methylbut-1-yn-1-yl)-5-methyl-4-oxo-2,3,4,5-tetrahydrobenzo[b][1,4]oxazepin-3-yl)picolinamide] | 3420 | 49.6 | 40.9 | –
8 | CN1C(=O)[C@@H](NC(=O)n2cc(Cc3cccc(F)n3)cn2)CCc2ccc(C#CC3(O)COC3)cc21 [I-113, (S)-4-((6-Fluoropyridin-2-yl)methyl)-N-(8-((3-hydroxyoxetan-3-yl)ethynyl)-1-methyl-2-oxo-2,3,4,5-tetrahydro-1H-benzo[b]azepin-3-yl)-1H-pyrazole-1-carboxamide] | 37 | 1.3 | 11.8 | –
9 | CN1C(=O)[C@@H](NC(=O)n2cc(Cc3ccc(F)nc3)cn2)COc2ccc(C#CC(C)(C)O)cc21 [I-16, (S)-4-((6-Fluoropyridin-3-yl)methyl)-N-(7-(3-hydroxy-3-methylbut-1-yn-1-yl)-5-methyl-4-oxo-2,3,4,5-tetrahydrobenzo[b][1,4]oxazepin-3-yl)-1H-pyrazole-1-carboxamide] | 2390 | 17.2 | 37.9 | –
10 | Cc1ccc(Cc2cnn(C(=O)N[C@H]3COc4ccc(Br)cc4N(C)C3=O)c2)cn1 [I-23, (S)—N-(7-Bromo-5-methyl-4-oxo-2,3,4,5-tetrahydrobenzo[b][1,4]oxazepin-3-yl)-4-((6-methylpyridin-3-yl)methyl)-1H-pyrazole-1-carboxamide] | – | 81.8 | 25.7 | 5000
11 | CN1C(=O)[C@@H](NC(=O)c2cc(Oc3cccnc3)ccn2)COc2ccc(C#CC(C)(C)O)cc21 [I-58, (S)—N-(7-(3-hydroxy-3-methylbut-1-yn-1-yl)-5-methyl-4-oxo-2,3,4,5-tetrahydrobenzo[b][1,4]oxazepin-3-yl)-4-(pyridin-3-yloxy)picolinamide] | 1180 | 3.8 | 20.2 | –
12 | CN1C(=O)[C@@H](NC(=O)n2cc(Cc3cccc(F)n3)cn2)COc2ccc(C#CC(C)(C)O)cc21 [I-1, (S)-4-((6-Fluoropyridin-2-yl)methyl)-N-(7-(3-hydroxy-3-methylbut-1-yn-1-yl)-5-methyl-4-oxo-2,3,4,5-tetrahydrobenzo[b][1,4]oxazepin-3-yl)-1H-pyrazole-1-carboxamide] | 2300 | 11.4 | 20.6 | –
13 | CN1C(=O)[C@@H](NC(=O)c2cc(Oc3cnn(C)c3)ccn2)COc2ccc(C#CC(C)(C)O)cc21 [I-126, (S)—N-(7-(3-hydroxy-3-methylbut-1-yn-1-yl)-5-methyl-4-oxo-2,3,4,5-tetrahydrobenzo[b][1,4]oxazepin-3-yl)-4-((1-methyl-1H-pyrazol-4-yl)oxy)picolinamide] | 155 | 8.9 | 15.3 | –
14 | CN1C(=O)[C@@H](NC(=O)c2cc(Cc3cccc(F)n3)ccn2)COc2ccc(C#CC(C)(C)O)cc21 [I-13, (S)-4-((6-fluoropyridin-2-yl)methyl)-N-(7-(3-hydroxy-3-methylbut-1-yn-1-yl)-5-methyl-4-oxo-2,3,4,5-tetrahydrobenzo[b][1,4]oxazepin-3-yl)picolinamide] | 1310 | 42 | 21.2 | –
15 | Cc1ccc(Oc2ccnc(C(=O)N[C@H]3COc4ccc(C#CC5(O)COC5)cc4N(C)C3=O)c2)c(C)n1 [I-79, (S)-4-((2,6-dimethylpyridin-3-yl)oxy)-N-(7-((3-hydroxyoxetan-3-yl)ethynyl)-5-methyl-4-oxo-2,3,4,5-tetrahydrobenzo[b][1,4]oxazepin-3-yl)picolinamide] | 4330 | 182 | 67.2 | –
